# Results published in PubChem BioAssay (NCI).
#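 In this assay, cells in 96-well plates receive the compound at five concentrations for 48 hours. Endpoints are linearly interpolated between the surrounding concentrations. The concentration for full growth arrest is given as TGI.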
# Assays:
# Assay in all cases: DTP human tumour cell line panel, 48 h
# M14 melanoma = test system: M14 melanoma
# RPMI-8226 leukemia = test system: RPMI-8226 leukemia
# HOP-18 NSCLC = test system: HOP-18 NSCLC
# HCC-2998 colon = test system: HCC-2998 colon
# COLO 205 colon = test system: COLO 205 colon
# HCT-15 colon = test system: HCT-15 colon
# HT29 colon = test system: HT29 colon
# NCI-H226 lung = test system: NCI-H226 lung
# TK-10 renal = test system: TK-10 renal
# OVCAR-5 ovarian = test system: OVCAR-5 ovarian
# SF-268 CNS = test system: SF-268 CNS
# KM12 colon = test system: KM12 colon
# ACHN renal = test system: ACHN renal
# NCI-H460 lung = test system: NCI-H460 lung
# DMS 273 small cell lung = test system: DMS 273 small cell lung
# 786-0 renal = test system: 786-0 renal
# LOX IMVI melanoma = test system: LOX IMVI melanoma
# UACC-62 melanoma = test system: UACC-62 melanoma
# MALME-3M melanoma = test system: MALME-3M melanoma
# OVCAR-8 ovarian = test system: OVCAR-8 ovarian
# UACC-257 melanoma = test system: UACC-257 melanoma
# LXFL 529 NSCLC = test system: LXFL 529 NSCLC
# CCRF-CEM leukemia = test system: CCRF-CEM leukemia
# SR leukemia = test system: SR leukemia
# XF 498 CNS = test system: XF 498 CNS
# DLD-1 colon = test system: DLD-1 colon
# UO-31 renal = test system: UO-31 renal
# SK-MEL-2 melanoma = test system: SK-MEL-2 melanoma
# MOLT-4 leukemia = test system: MOLT-4 leukemia
# HL-60(TB) leukemia = test system: HL-60(TB) leukemia
# SN12C renal = test system: SN12C renal
# K-562 leukemia = test system: K-562 leukemia
# SK-MEL-5 melanoma = test system: SK-MEL-5 melanoma
# IGROV1 ovarian = test system: IGROV1 ovarian
# HOP-62 NSCLC = test system: HOP-62 NSCLC
# CAKI-1 renal = test system: CAKI-1 renal
# OVCAR-4 ovarian = test system: OVCAR-4 ovarian
# EKVX NSCLC = test system: EKVX NSCLC
# M19-MEL melanoma = test system: M19-MEL melanoma
# NCI-H522 lung = test system: NCI-H522 lung
# SF-295 CNS = test system: SF-295 CNS
# NCI-H23 lung = test system: NCI-H23 lung
# KM20L2 colon = test system: KM20L2 colon
# A549 NSCLC = test system: A549 NSCLC
# SNB-78 CNS = test system: SNB-78 CNS
# SNB-75 CNS = test system: SNB-75 CNS
# DMS 114 small cell lung = test system: DMS 114 small cell lung
# HCT-116 colon = test system: HCT-116 colon
# SF-539 CNS = test system: SF-539 CNS
# RXF 393 renal = test system: RXF 393 renal
# SNB-19 CNS = test system: SNB-19 CNS
# SK-MEL-28 melanoma = test system: SK-MEL-28 melanoma
# SW-620 colon = test system: SW-620 colon
# SK-OV-3 ovarian = test system: SK-OV-3 ovarian
# OVCAR-3 ovarian = test system: OVCAR-3 ovarian
# U251 CNS = test system: U251 CNS
# HOP-92 NSCLC = test system: HOP-92 NSCLC
# A498 renal = test system: A498 renal
smiles,measurement,setting,value
COc1cc(C2c3cc4c(cc3[C@H](NS(C)(=O)=O)C3COC(=O)[C@H]23)OCO4)cc(OC)c1OC (stereo partly drawn),TGI,M14 melanoma,> 100 µM
same,TGI,RPMI-8226 leukemia,46.3 µM
same,TGI,HOP-18 NSCLC,> 100 µM
same,TGI,HCC-2998 colon,> 100 µM
same,TGI,COLO 205 colon,0.436 µM
same,TGI,HCT-15 colon,> 100 µM
same,TGI,HT29 colon,> 100 µM
same,TGI,NCI-H226 lung,0.625 µM
same,TGI,TK-10 renal,> 100 µM
same,TGI,OVCAR-5 ovarian,> 100 µM
same,TGI,SF-268 CNS,> 100 µM
same,TGI,KM12 colon,> 100 µM
same,TGI,ACHN renal,> 100 µM
same,TGI,NCI-H460 lung,> 100 µM
same,TGI,DMS 273 small cell lung,> 100 µM
same,TGI,786-0 renal,> 100 µM
same,TGI,LOX IMVI melanoma,> 100 µM
same,TGI,UACC-62 melanoma,> 100 µM
same,TGI,MALME-3M melanoma,> 100 µM
same,TGI,OVCAR-8 ovarian,> 100 µM
same,TGI,UACC-257 melanoma,> 100 µM
same,TGI,LXFL 529 NSCLC,> 100 µM
same,TGI,CCRF-CEM leukemia,> 100 µM
same,TGI,SR leukemia,> 100 µM
same,TGI,XF 498 CNS,> 100 µM
same,TGI,DLD-1 colon,> 100 µM
same,TGI,UO-31 renal,> 100 µM
same,TGI,SK-MEL-2 melanoma,> 100 µM
same,TGI,MOLT-4 leukemia,18.5 µM
same,TGI,HL-60(TB) leukemia,0.883 µM
same,TGI,SN12C renal,> 100 µM
same,TGI,K-562 leukemia,> 100 µM
Cc1nc(N2N=C(c3ccc(Cl)cc3)CCC2=O)sc1[N+](=O)[O-],TGI,M14 melanoma,> 100 µM
same,TGI,RPMI-8226 leukemia,> 100 µM
same,TGI,HOP-18 NSCLC,> 100 µM
same,TGI,HCC-2998 colon,> 100 µM
same,TGI,COLO 205 colon,> 100 µM
same,TGI,SK-MEL-5 melanoma,> 100 µM
same,TGI,HCT-15 colon,> 100 µM
same,TGI,IGROV1 ovarian,> 100 µM
same,TGI,HT29 colon,> 100 µM
same,TGI,NCI-H226 lung,> 100 µM
same,TGI,TK-10 renal,> 100 µM
same,TGI,HOP-62 NSCLC,> 100 µM
same,TGI,SF-268 CNS,> 100 µM
same,TGI,KM12 colon,> 100 µM
same,TGI,ACHN renal,> 100 µM
same,TGI,CAKI-1 renal,> 100 µM
same,TGI,OVCAR-4 ovarian,> 100 µM
same,TGI,EKVX NSCLC,> 100 µM
same,TGI,NCI-H460 lung,> 100 µM
same,TGI,M19-MEL melanoma,> 100 µM
same,TGI,DMS 273 small cell lung,> 100 µM
same,TGI,NCI-H522 lung,> 100 µM
same,TGI,SF-295 CNS,> 100 µM
same,TGI,NCI-H23 lung,> 100 µM
same,TGI,KM20L2 colon,> 100 µM
same,TGI,A549 NSCLC,> 100 µM
same,TGI,786-0 renal,> 100 µM
same,TGI,LOX IMVI melanoma,> 100 µM
same,TGI,SNB-78 CNS,> 100 µM
same,TGI,UACC-62 melanoma,> 100 µM
same,TGI,MALME-3M melanoma,> 100 µM
same,TGI,OVCAR-8 ovarian,> 100 µM
same,TGI,UACC-257 melanoma,> 100 µM
same,TGI,LXFL 529 NSCLC,> 100 µM
same,TGI,CCRF-CEM leukemia,> 100 µM
same,TGI,SNB-75 CNS,> 100 µM
same,TGI,SR leukemia,> 100 µM
same,TGI,DMS 114 small cell lung,> 100 µM
same,TGI,XF 498 CNS,> 100 µM
same,TGI,DLD-1 colon,> 100 µM
same,TGI,HCT-116 colon,> 100 µM
same,TGI,UO-31 renal,> 100 µM
same,TGI,SF-539 CNS,> 100 µM
same,TGI,RXF 393 renal,> 100 µM
same,TGI,SNB-19 CNS,> 100 µM
same,TGI,SK-MEL-28 melanoma,> 100 µM
same,TGI,SK-MEL-2 melanoma,> 100 µM
same,TGI,MOLT-4 leukemia,> 100 µM
same,TGI,SW-620 colon,> 100 µM
same,TGI,HL-60(TB) leukemia,> 100 µM
same,TGI,SK-OV-3 ovarian,> 100 µM
same,TGI,OVCAR-3 ovarian,> 100 µM
same,TGI,U251 CNS,> 100 µM
same,TGI,SN12C renal,> 100 µM
same,TGI,K-562 leukemia,> 100 µM
CCCCC(C(=O)CCC(=O)Nc1ccc(Cl)c(Cl)c1)C(=O)C(C)C (stereo not drawn),TGI,M14 melanoma,> 100 µM
same,TGI,RPMI-8226 leukemia,> 100 µM
same,TGI,HOP-18 NSCLC,> 100 µM
same,TGI,HCC-2998 colon,> 100 µM
same,TGI,COLO 205 colon,> 100 µM
same,TGI,SK-MEL-5 melanoma,> 100 µM
same,TGI,HCT-15 colon,> 100 µM
same,TGI,IGROV1 ovarian,> 100 µM
same,TGI,HOP-92 NSCLC,> 100 µM
same,TGI,HT29 colon,> 100 µM
same,TGI,A498 renal,> 100 µM
same,TGI,NCI-H226 lung,> 100 µM
same,TGI,TK-10 renal,> 100 µM
same,TGI,OVCAR-5 ovarian,88.8 µM
same,TGI,HOP-62 NSCLC,> 100 µM
same,TGI,SF-268 CNS,> 100 µM
same,TGI,KM12 colon,> 100 µM
same,TGI,ACHN renal,> 100 µM
same,TGI,CAKI-1 renal,> 100 µM
same,TGI,OVCAR-4 ovarian,> 100 µM
same,TGI,EKVX NSCLC,> 100 µM
same,TGI,NCI-H460 lung,> 100 µM
same,TGI,M19-MEL melanoma,> 100 µM
same,TGI,DMS 273 small cell lung,> 100 µM
same,TGI,NCI-H522 lung,> 100 µM
same,TGI,SF-295 CNS,> 100 µM
same,TGI,NCI-H23 lung,> 100 µM
same,TGI,KM20L2 colon,> 100 µM
same,TGI,A549 NSCLC,> 100 µM
same,TGI,786-0 renal,> 100 µM
same,TGI,LOX IMVI melanoma,> 100 µM
same,TGI,SNB-78 CNS,> 100 µM
same,TGI,UACC-62 melanoma,> 100 µM
same,TGI,MALME-3M melanoma,> 100 µM
same,TGI,OVCAR-8 ovarian,> 100 µM
same,TGI,UACC-257 melanoma,> 100 µM
same,TGI,LXFL 529 NSCLC,> 100 µM
same,TGI,CCRF-CEM leukemia,> 100 µM
same,TGI,SNB-75 CNS,75 µM
same,TGI,SR leukemia,> 100 µM
same,TGI,DMS 114 small cell lung,> 100 µM
same,TGI,DLD-1 colon,> 100 µM
same,TGI,HCT-116 colon,> 100 µM
same,TGI,UO-31 renal,> 100 µM
same,TGI,SF-539 CNS,> 100 µM
same,TGI,RXF 393 renal,> 100 µM
same,TGI,SNB-19 CNS,> 100 µM
same,TGI,SK-MEL-28 melanoma,> 100 µM
same,TGI,SK-MEL-2 melanoma,> 100 µM
same,TGI,MOLT-4 leukemia,> 100 µM
same,TGI,SW-620 colon,> 100 µM
same,TGI,HL-60(TB) leukemia,> 100 µM
same,TGI,SK-OV-3 ovarian,> 100 µM
same,TGI,OVCAR-3 ovarian,> 100 µM
same,TGI,U251 CNS,> 100 µM
same,TGI,SN12C renal,> 100 µM
same,TGI,K-562 leukemia,> 100 µM
CCOC(=O)NC/C=C/COC1CCCCO1 (stereo not drawn),TGI,M14 melanoma,> 100 µM
same,TGI,RPMI-8226 leukemia,> 100 µM
same,TGI,HOP-18 NSCLC,> 100 µM
same,TGI,HCC-2998 colon,> 100 µM
same,TGI,COLO 205 colon,> 100 µM
same,TGI,SK-MEL-5 melanoma,> 100 µM
same,TGI,HCT-15 colon,> 100 µM
same,TGI,IGROV1 ovarian,> 100 µM
same,TGI,A498 renal,> 100 µM
same,TGI,NCI-H226 lung,> 100 µM
same,TGI,TK-10 renal,> 100 µM
same,TGI,HOP-62 NSCLC,> 100 µM
same,TGI,SF-268 CNS,> 100 µM
same,TGI,KM12 colon,> 100 µM
same,TGI,ACHN renal,> 100 µM
same,TGI,CAKI-1 renal,> 100 µM
same,TGI,OVCAR-4 ovarian,> 100 µM
same,TGI,NCI-H460 lung,> 100 µM
same,TGI,M19-MEL melanoma,> 100 µM
same,TGI,DMS 273 small cell lung,> 100 µM
same,TGI,NCI-H522 lung,> 100 µM
same,TGI,KM20L2 colon,> 100 µM
same,TGI,A549 NSCLC,> 100 µM
same,TGI,786-0 renal,> 100 µM
same,TGI,SNB-78 CNS,> 100 µM
same,TGI,UACC-62 melanoma,> 100 µM
same,TGI,MALME-3M melanoma,> 100 µM
same,TGI,OVCAR-8 ovarian,> 100 µM
same,TGI,UACC-257 melanoma,> 100 µM
same,TGI,LXFL 529 NSCLC,> 100 µM
same,TGI,CCRF-CEM leukemia,> 100 µM
same,TGI,SNB-75 CNS,> 100 µM
same,TGI,SR leukemia,> 100 µM
same,TGI,DMS 114 small cell lung,> 100 µM
same,TGI,DLD-1 colon,> 100 µM
same,TGI,HCT-116 colon,> 100 µM
same,TGI,UO-31 renal,> 100 µM
same,TGI,SF-539 CNS,> 100 µM
same,TGI,RXF 393 renal,> 100 µM
same,TGI,SNB-19 CNS,> 100 µM
same,TGI,SK-MEL-28 melanoma,> 100 µM
same,TGI,SK-MEL-2 melanoma,> 100 µM
same,TGI,MOLT-4 leukemia,> 100 µM
same,TGI,SW-620 colon,> 100 µM
same,TGI,HL-60(TB) leukemia,> 100 µM
same,TGI,SK-OV-3 ovarian,> 100 µM
same,TGI,U251 CNS,> 100 µM
same,TGI,SN12C renal,> 100 µM
same,TGI,K-562 leukemia,> 100 µM
